Results from US20080114066A1, “Synergistic Effects Of Docosahexaenoic Acid (DHA) And Carotenoid Absorption Of Cognitive Function” (Trustees of Tufts College, priority 2005, published 2008).

Key:
Format in all cases: in vivo, human
[1] = system: non-smoking women (60-80 years); assay: Verbal Fluency Test; conditions: group mean
Description: (§1) Subjects: Fifty non-smoking women (60-80 years) were recruited from the general population for a 4 month supplementation study. All subjects underwent a screening examination that includes a medical history, a physical examination, and a routine blood clinical chemistry profile. Volunteers with any history or biochemical evidence of lactose intolerance, liver, kidney, or pancreatic disease, anemia, active bowel disease or resection, insulin-dependent diabetes, easy bruising or bleeding, bleeding disorders, hyperglyceridemia, hyperlipidproteinemia, or alcoholism were excluded from the study. Moreover, individuals taking mineral oil or medications suspected of interfering with fat-soluble vitamin absorption were excluded. Subjects using steroids or non-steroid anti-inflammatory drugs, or antihistamine drugs were excluded. […] Subjects were excluded if they have taken any nutrient supplement for 2 months or more before admission into the study or carotene supplements 6 months or more before the study. Smoking was not permitted during the course of the study.
Women were randomly assigned to one of four groups: Control (n=10), DHA (n=14, DHA 800 mg/d), lutein (n=12, lutein 12 mg/d), and lutein+DHA (n=14, lutein 12 mg/d; DHA 800 mg/d) (C, D, L, and LD, respectively). The supplement type was randomized. Subjects visited the Jean Mayer USDA Human Nutrition Research Center on Aging at Tufts University on days that supplements were distributed and blood obtained (0 mo-baseline, 2 mo, and 4 mo). Subjects were instructed to take the supplement with a nutritional energy drink (8 oz., Boost®, Mead Johnson Nutritionals) but were otherwise asked to not alter their diets. The diet of each subject was monitored with food frequency questionnaires (Block G, et al., A data-based approach to diet questionnaire design and testing. Am J Epidemiol, 1986. 24: p. 453-469) completed at baseline, 2 months and 4 months to be sure that there were no confounding changes in dietary intake. All subjects completed at least two sets of cognitive and mood self-report tests, at the beginning of the study, then at the end of the study, after four months of supplementation, at the Schepens Eye Research Institute. Compliance was by monitored by interview, compliance calendars and capsule count. Both the subjects and the experimenter were masked to the experimental groups. Blood samples were collected at baseline, 2 months and 4 months, and serum was separated from red blood cells (800×g, 10 minutes). Aliquots of serum are stored at −70° C. until analyzed. […]

[2] = system: serum lipoproteins (VLDL, LDL, HDL); assay: Serum cholesterol, lipoproteins and lipoprotein subfractions by NMR spectroscopy; conditions: for Serum HDL concentration / Serum LDL concentration / Serum VLDL concentration / Serum total Cholesterol concentration: after 4 months of supplementation, mean ± se
Method: At study end (4 mo), serum was analyzed for total cholesterol, lipoproteins (VLDL, LDL, HDL) as well as lipoprotein subfractions using NMR spectroscopy (Otvos, J. D., Clin Lab, 2002. 48: p. 171-180). The NMR method employs the characteristic methyl group signals broadcast by lipoprotein subclasses of different size as the basis for their quantification. Each measurement includes the concentrations of 5 subclasses of HDL (larger numbers denoting larger subclasses), 3 subclasses of LDL and 6 subclasses of VLDL (V1-V6). Lipoprotein subclasses were grouped into large, intermediate and small subclasses. That is, large, intermediate, and small HDL were H5+H4, H3, and H2+H1, respectively. Large, intermediate and small LDL were L3, L2, and L1, respectively. And large, intermediate and small VLDL were V6+V5, V4+V3, and V2+V1, respectively.
Results are expressed as mean ±SE. Within each group, each subject was followed longitudinally and significant differences from baseline were measured using Student's paired t-test (Systat version10, Port Richmond, Calif. Group differences were measured using ANOVA followed by the Bonferroni post hoc test (Systat10).

[3] = system: non-smoking women (60-80 years); assay: Digit Span Forward and Backward; conditions: group mean
Description: as §1
(§2) Women were randomly assigned to one of four groups: Control (n=10), DHA (n=14, DHA 800 mg/d), lutein (n=12, lutein 12 mg/d), and lutein+DHA (n=14, lutein 12 mg/d; DHA 800 mg/d) (C, D, L, and LD, respectively). The supplement type was randomized. Subjects visited the Jean Mayer USDA Human Nutrition Research Center on Aging at Tufts University on days that supplements were distributed and blood obtained (0 mo-baseline, 2 mo, and 4 mo). Subjects were instructed to take the supplement with a nutritional energy drink (8 oz., Boost®, Mead Johnson Nutritionals) but were otherwise asked to not alter their diets. The diet of each subject was monitored with food frequency questionnaires (Block G, et al., A data-based approach to diet questionnaire design and testing. Am J Epidemiol, 1986. 24: p. 453-469) completed at baseline, 2 months and 4 months to be sure that there were no confounding changes in dietary intake. All subjects completed at least two sets of cognitive and mood self-report tests, at the beginning of the study, then at the end of the study, after four months of supplementation, at the Schepens Eye Research Institute. Compliance was by monitored by interview, compliance calendars and capsule count. Both the subjects and the experimenter were masked to the experimental groups. Blood samples were collected at baseline, 2 months and 4 months, and serum was separated from red blood cells (800×g, 10 minutes). Aliquots of serum are stored at −70° C. until analyzed. At baseline and 2 months, a two month supply of placebo supplements, DHA (800 mg/d, DHASCO, Martek Biological Sciences), lutein (12 mg/d plus 0.5 mg zeaxanthin, Kemin Foods), or lutein+DHA (12 mg/d and 800 mg/d, respectively and nutritional energy drink was provided. At baseline and 4 months, subjects visited the Schepens Eye Research Institute (Boston, Mass.) for testing of MP optical density (MPOD) and an ophthalmic exam. There were two visits at each time point.
(§3) Supplementation Protocol. Dietary supplements in capsule form were Lutein (12 mg/day) (Kemin Foods) and Docosahexaenoic Acid (DHASCO) (800 mg/day) (Martek Biological Sciences). Participants in each of the four supplementation groups were instructed to drink one can of a nutritional supplement daily (Boost Plus) (Mead Johnson) when taking their capsules. Subjects ingested their dietary supplements daily for a period of 4 months. Both the subjects and the experimenter were masked to the experimental groups.
(§4) Tests and Measurements. The battery of cognitive tests included tests of memory and processing speed or attention and a measure of self-reported mood. […] Early cognitive markers of the incidence of dementia and mortality: A longitudinal population-based study of the oldest old. International Journal of Geriatric Psychiatry, 12, 53-59; Payton, M., Riggs, K. M., Spiro III, A., Weiss, S. T. & Hu, H. (1998). […]

[4] = system: non-smoking women (60-80 years); assay: MIR (Memory in Reality) apartment test; conditions: group mean
Description: as §1, §2, §3, §4

[5] = system: non-smoking women (60-80 years); assay: Shopping List Task (memory test); conditions: group mean
Description: as §1, §2, §3, §4

[6] = Baseline, before supplementation
[7] = Final, after 4 months of supplementation (DHA 800 mg/d and/or lutein 12 mg/d)
[8] = Final, after 4 months of supplementation

SMILES | Verbal Fluency [1, 6] | Verbal Fluency [1, 7] | Serum HDL concentration [2] | Serum LDL concentration [2] | Serum VLDL concentration [2] | Serum total Cholesterol concentration [2] | Backward Digit Span Length [3, 6] | Backward Digit Span Total [3, 6] | Forward Digit Span Length [3, 6] | Forward Digit Span Total [3, 6] | Backward Digit Span Length [3, 8] | Backward Digit Span Total [3, 8] | Forward Digit Span Length [3, 8] | Forward Digit Span Total [3, 8] | MIR Apartment Test Delayed Recall (max. 10) [4, 6] | MIR Apartment Test Location Recall (max. 10) [4, 6] | MIR Apartment Test Delayed Recall (max. 10) [4, 8] | MIR Apartment Test Location Recall (max. 10) [4, 8] | Shopping List Memory Test Delayed Recall (max. 10) [5, 6] | Shopping List Memory Test Trial 1 Items Recalled (max. 10) [5, 6] | also measured
CC/C=C\C/C=C\C/C=C\C/C=C\C/C=C\C/C=C\CCC(=O)O [DHA, cis-4,7,10,13,16,19-docosahexaenoic acid] | 15.0 | 17.8 | 67 ± 3 mg cholesterol/dL | 125 ± 5 mg cholesterol/dL | 78 ± 14 mg cholesterol/dL | 209 ± 5 mg cholesterol/dL | 5.4 | 7.9 | 6.6 | 8.4 | 5.8 | 8.4 | 6.7 | 8.5 | 9.4 | 9.9 | 9.4 | 10.0 | 9.0 | 7.2 | Shopping List Memory Test Trials to Learned List (max. 6) [5, 6]: 3.1; Shopping List Memory Test Delayed Recall (max. 10) [5, 8]: 8.7; Shopping List Memory Test Trial 1 Items Recalled (max. 10) [5, 8]: 7.7; Shopping List Memory Test Trials to Learned List (max. 6) [5, 8]: 2.6
CC1=C[C@H](O)CC(C)(C)[C@H]1/C=C/C(C)=C/C=C/C(C)=C/C=C/C=C(C)/C=C/C=C(C)/C=C/C1=C(C)C[C@@H](O)CC1(C)C [Lutein, lutein] | 11.3 | 15.5 | 70 ± 5 mg cholesterol/dL | 113 ± 6 mg cholesterol/dL | 75 ± 12 mg cholesterol/dL | 199 ± 8 mg cholesterol/dL | 5.1 | 7.5 | 6.6 | 8.1 | 4.7 | 6.9 | 7.0 | 8.7 | 8.3 | 9.5 | 8.6 | 9.5 | 8.3 | 6.9 | Intermediate HDL subclass, group comparison ([2]; study end (4 mo)): significantly greater in the L group than in the LD group; Shopping List Memory Test Trials to Learned List (max. 6) [5, 6]: 4.2; Shopping List Memory Test Delayed Recall (max. 10) [5, 8]: 7.6; Shopping List Memory Test Trial 1 Items Recalled (max. 10) [5, 8]: 6.5; Shopping List Memory Test Trials to Learned List (max. 6) [5, 8]: 3.9
